Measured values: ChEMBL document CHEMBL6083215, “Structure elucidation, absolute configuration, and biological evaluation of cyclic peroxides from the sponge Plakinastrella sp” (2024)

Columns and labels:
Type in all cases: functional
[1] = test system: KM12; experiment: Growth inhibition of human KM12 cells
[2] = test system: RXF 393; experiment: Growth inhibition of human RXF 393 cells
[3] = test system: PC-3; experiment: Growth inhibition of human PC-3 cells
[4] = test system: NCI-H522; experiment: Growth inhibition of human NCI-H522 cells
[5] = test system: UACC-62; experiment: Growth inhibition of human UACC-62 cells
[6] = test system: NCI-H226; experiment: Growth inhibition of human NCI-H226 cells
[7] = test system: SK-MEL-2; experiment: Growth inhibition of human SK-MEL-2 cells
[8] = test system: SNB-19; experiment: Growth inhibition of human SNB-19 cells
[9] = test system: TK-10; experiment: Growth inhibition of human TK-10 cells
[10] = test system: OVCAR-4; experiment: Growth inhibition of human OVCAR-4 cells
[11] = test system: UACC-257; experiment: Growth inhibition of human UACC-257 cells
[12] = test system: BT-549; experiment: Growth inhibition of human BT-549 cells
[13] = test system: HOP-92; experiment: Growth inhibition of human HOP-92 cells
[14] = test system: 786-0; experiment: Growth inhibition of human 786-0 cells
[15] = test system: MDA-MB-468; experiment: Growth inhibition of human MDA-MB-468 cells
[16] = test system: SF-295; experiment: Growth inhibition of human SF-295 cells
[17] = test system: OVCAR-8; experiment: Growth inhibition of human OVCAR-8 cells
[18] = test system: HOP-62; experiment: Growth inhibition of human HOP-62 cells
[19] = test system: DU-145; experiment: Growth inhibition of human DU-145 cells
[20] = test system: A549; experiment: Growth inhibition of human A549 cells
[21] = test system: T47D; experiment: Growth inhibition of human T47D cells
[22] = test system: HCT-116; experiment: Growth inhibition of human HCT-116 cells
[23] = test system: SR; experiment: Growth inhibition of human SR cells
[24] = test system: UO-31; experiment: Growth inhibition of human UO-31 cells
[25] = test system: CCRF-CEM; experiment: Growth inhibition of human CCRF-CEM cells
[26] = test system: IGROV-1; experiment: Growth inhibition of human IGROV-1 cells
[27] = test system: SW-620; experiment: Growth inhibition of human SW620 cells
[28] = test system: OVCAR-3; experiment: Growth inhibition of human OVCAR-3 cells
[29] = test system: MOLT-4; experiment: Growth inhibition of human MOLT-4 cells
[30] = test system: OVCAR-5; experiment: Growth inhibition of human OVCAR-5 cells
[31] = test system: CAKI-1; experiment: Growth inhibition of human CAKI-1 cells
[32] = test system: MDA-MB-231; experiment: Growth inhibition of human MDA-MB-231 cells
[33] = test system: HCC 2998; experiment: Growth inhibition of human HCC 2998 cells
[34] = test system: NCI/ADR-RES; experiment: Growth inhibition of human NCI-ADR-RES cells
[35] = test system: SK-MEL-5; experiment: Growth inhibition of human SK-MEL-5 cells
[36] = test system: EKVX; experiment: Growth inhibition of human EKVX cells
[37] = test system: RPMI-8226; experiment: Growth inhibition of human RPMI-8226 cells
[38] = test system: NCI-H460; experiment: Growth inhibition of human NCI-H460 cells
[39] = test system: NCI-H23; experiment: Growth inhibition of human NCI-H23 cells
[40] = test system: SF-268; experiment: Growth inhibition of human SF-268 cells
[41] = test system: NCI-H322M; experiment: Growth inhibition of human NCI-H322M cells
[42] = test system: HCT-15; experiment: Growth inhibition of human HCT-15 cells
[43] = test system: LOX IMVI; experiment: Growth inhibition of human LOX IMVI cells
[44] = test system: SK-MEL-28; experiment: Growth inhibition of human SK-MEL-28 cells
[45] = test system: HL-60(TB); experiment: Growth inhibition of human HL-60(TB) cells
[46] = test system: SK-OV-3; experiment: Growth inhibition of human SK-OV-3 cells
[47] = test system: Hs-578T; experiment: Growth inhibition of human HS 578T cells
[48] = test system: SF-539; experiment: Growth inhibition of human SF-539 cells
[49] = test system: MDA-MB-435; experiment: Growth inhibition of human MDA-MB-435 cells
[50] = test system: ACHN; experiment: Growth inhibition of human ACHN cells
[51] = test system: MCF7; experiment: Growth inhibition of human MCF7 cells
[52] = test system: M14; experiment: Growth inhibition of human M14 cells
[53] = test system: A498; experiment: Growth inhibition of human A498 cells
[54] = test system: COLO 205; experiment: Growth inhibition of human COLO 205 cells
[55] = test system: Malme-3M; experiment: Growth inhibition of human Malme-3M cells
[56] = test system: U-251; experiment: Growth inhibition of human U-251 cells
[57] = test system: HT-29; experiment: Growth inhibition of human HT-29 cells
[58] = test system: SN12C; experiment: Growth inhibition of human SN12C cells
[59] = test system: SNB-75; experiment: Growth inhibition of human SNB-75 cells
[60] = test system: K562; experiment: Growth inhibition of human K562 cells

Measured: GI50

CCCCCCCCC/C=C(/C)C[C@]1(C)C[C@H](C)[C@@H](CC(=O)O)OO1
190 nM: [24]
110 nM: [43]
220 nM: [45]
980 nM: all other assays above

COc1cccc2c1C(=O)c1c(O)c3c(c(O)c1C2=O)C[C@@](O)(C(=O)CO)C[C@@H]3O[C@H]1C[C@H](N)[C@H](O)[C@H](C)O1 [DOXORUBICIN]
not listed: [24] | [43] | [45]
120 nM: all other assays above

CCCCCCCC/C=C(/C)C[C@]1(C)C[C@H](C)[C@@H](CC(=O)O)OO1
90 nM: [45]
10 nM: [43]
60 nM: [24]
600 nM: all other assays above

CCCCCCCCC/C=C(/C)CC(C)(O)CC(C)C(O)CC(=O)OC (configuration not stated)
> 100000 nM: all assays above
